According to patent US6753424B1, “Conjugates of DNA interacting groups with steroid hormones for use as nucleic acid transfection agents” (priority 1998, dated 2004):

Assays:
GR-GFP chimera [1] = test: Nuclear Transfer Induction assay (NTI), monourethane ligands, HeLa cells; assay type: cell-based; conditions: 1 hr
Procedure: Conditions: HeLa cells are transiently transfected by CaPO4 with an expression vector encoding a GR-GFP chimera (5 μg in transfection cocktail, 4 cm diameter dishes, DMEM with 3% FCS). After 24 hour expression, ligand is added for 1 hr and cells are fixed with formaldehyde (5 min 4° C.) and inspected by fluorescence microscopy. Fluorescent cells are counted and divided into different classes according to ‘cytoplasmic’ (C) versus ‘nuclear’ (N) localisation of fluorescence.
First column: “Conditions”: Name of compounds added (marked at top: ‘//ligand’), and their concentration (in parentheses) and assay number (01 through 21).
Values are given as percentage of cells displaying the corresponding localisatidn, within each tested condition the sum is 100%.

GR-GFP chimera [2] = test: Nuclear Transfer Induction assay (NTI), diurethane ligands, CV-1 cells; assay type: cell-based; conditions: 4 hr
Procedure: Conditions: CV-1 cells are transiently transfected with DOTAP (Boehringer-Mannheim) with an expression vector encoding a GR-GFP chimera (see 8.1). After 36 hours expression, ligand is added for 4 hr and cells are fixed and counted as given in 8.1.

Compound	C < N, percentage of cells (GR-GFP chimera [1]; ligand 1.10-6M) [%]	C << N, percentage of cells (GR-GFP chimera [1]; ligand 1.10-6M) [%]	C = N, percentage of cells (GR-GFP chimera [1]; ligand 1.10-6M) [%]	C > N, percentage of cells (GR-GFP chimera [1]; ligand 1.10-6M) [%]	C >> N, percentage of cells (GR-GFP chimera [1]; ligand 1.10-6M) [%]	C < N, percentage of cells (GR-GFP chimera [1]; ligand 1.10-7M) [%]	C << N, percentage of cells (GR-GFP chimera [1]; ligand 1.10-7M) [%]	C = N, percentage of cells (GR-GFP chimera [1]; ligand 1.10-7M) [%]	C > N, percentage of cells (GR-GFP chimera [1]; ligand 1.10-7M) [%]	C >> N, percentage of cells (GR-GFP chimera [1]; ligand 1.10-7M) [%]	C < N, percentage of cells (GR-GFP chimera [2]; ligand 5.10-6M) [%]	C << N, percentage of cells (GR-GFP chimera [2]; ligand 5.10-6M) [%]	C = N, percentage of cells (GR-GFP chimera [2]; ligand 5.10-6M) [%]	C > N, percentage of cells (GR-GFP chimera [2]; ligand 5.10-6M) [%]	C >> N, percentage of cells (GR-GFP chimera [2]; ligand 5.10-6M) [%]	C < N, percentage of cells (GR-GFP chimera [2]; ligand 5.10-7M) [%]	C << N, percentage of cells (GR-GFP chimera [2]; ligand 5.10-7M) [%]	C = N, percentage of cells (GR-GFP chimera [2]; ligand 5.10-7M) [%]	C > N, percentage of cells (GR-GFP chimera [2]; ligand 5.10-7M) [%]	C >> N, percentage of cells (GR-GFP chimera [2]; ligand 5.10-7M) [%]	other results
COC(=O)CCCCCCCCCCNC(=O)OCC(=O)[C@@]1(O)CCC2C3CCC4=CC(=O)CCC4(C)C3C(O)CC21C (some centres unmarked) [CL-C11-COOCH3, 10-carboxymethyl-n-decy-1-carboxamicacid-cortisol-21-ester]	60	13	24	3	0	20	0	55	20	5	–	–	–	–	–	–	–	–	–	–	–
CC1CC2C3CCC4=CC(=O)C=CC4(C)C3(F)C(O)CC2(C)C1(O)C(=O)COC(=O)NCCOC(=O)NCCCNCCCCNCCCN (centres unmarked) [DEX-C4-Sn]	–	–	–	–	–	–	–	–	–	–	27.6	69.5	2.9	0	0	4.6	0.6	67.4	15.4	12	C < N, percentage of cells (GR-GFP chimera [2]; ligand 5.10-8M): 1.1%; C << N, percentage of cells (GR-GFP chimera [2]; ligand 5.10-8M): 0%; C = N, percentage of cells (GR-GFP chimera [2]; ligand 5.10-8M): 43.3%; C > N, percentage of cells (GR-GFP chimera [2]; ligand 5.10-8M): 35.8%; C >> N, percentage of cells (GR-GFP chimera [2]; ligand 5.10-8M): 19.8%; C < N, percentage of cells (GR-GFP chimera [2]; ligand 5.10-9M): 0%; C << N, percentage of cells (GR-GFP chimera [2]; ligand 5.10-9M): 0%; C = N, percentage of cells (GR-GFP chimera [2]; ligand 5.10-9M): 28.5%; C > N, percentage of cells (GR-GFP chimera [2]; ligand 5.10-9M): 43.8%; C >> N, percentage of cells (GR-GFP chimera [2]; ligand 5.10-9M): 27.7%
COC(=O)CCNC(=O)OCC(=O)[C@@]1(O)CCC2C3CCC4=CC(=O)CCC4(C)C3C(O)CC21C (some centres unmarked) [CL-C3-COOCH3, 2-carboxymethyl-ethyl-1-carboxamicacid-cortisol-21-ester]	55	42	2	1	0	50	18	21	1	0	–	–	–	–	–	–	–	–	–	–	–
COC(=O)CCNC(=O)OCC(=O)[C@@]1(O)[C@H](C)CC2C3CCC4=CC(=O)C=CC4(C)[C@@]3(F)C(O)CC21C (some centres unmarked) [DEX-C3-COOCH3, 2-carboxymethyl-ethyl-1-carboxamicacid-dexamethasone-21-ester]	–	–	–	–	–	25	75	0	0	0	–	–	–	–	–	–	–	–	–	–	C < N, percentage of cells (GR-GFP chimera [1]; ligand 1.10-8M): 22%; C << N, percentage of cells (GR-GFP chimera [1]; ligand 1.10-8M): 78%; C = N, percentage of cells (GR-GFP chimera [1]; ligand 1.10-8M): 0%; C > N, percentage of cells (GR-GFP chimera [1]; ligand 1.10-8M): 0%; C >> N, percentage of cells (GR-GFP chimera [1]; ligand 1.10-8M): 0%
CC12CCC(=O)C=C1CCC1C2C(O)CC2(C)C1CC[C@]2(O)C(=O)COC(=O)NCCC(=O)O (some centres unmarked) [CL-C3-COOH, 2-carboxy-ethyl-1-carboxamicacid-cortisol-21-ester]	13	0	85	2	0	2	0	43	55	0	–	–	–	–	–	–	–	–	–	–	–
Cc1oc2c(C)c3oc(=O)cc(C)c3cc2c1CNC(=O)OCCCCCCNC(=O)OCC(=O)[C@@]1(O)[C@H](C)CC2C3CCC4=CC(=O)C=CC4(C)[C@@]3(F)C(O)CC21C (some centres unmarked) [DEX-C6-Pso]	–	–	–	–	–	–	–	–	–	–	10	90	0	0	0	6	94	0	0	0	C < N, percentage of cells (GR-GFP chimera [2]; ligand 5.10-8M): 29.4%; C << N, percentage of cells (GR-GFP chimera [2]; ligand 5.10-8M): 60.8%; C = N, percentage of cells (GR-GFP chimera [2]; ligand 5.10-8M): 9.8%; C > N, percentage of cells (GR-GFP chimera [2]; ligand 5.10-8M): 0%; C >> N, percentage of cells (GR-GFP chimera [2]; ligand 5.10-8M): 0%; C < N, percentage of cells (GR-GFP chimera [2]; ligand 5.10-9M): 38.3%; C << N, percentage of cells (GR-GFP chimera [2]; ligand 5.10-9M): 22.6%; C = N, percentage of cells (GR-GFP chimera [2]; ligand 5.10-9M): 35.7%; C > N, percentage of cells (GR-GFP chimera [2]; ligand 5.10-9M): 3.5%; C >> N, percentage of cells (GR-GFP chimera [2]; ligand 5.10-9M): 0%
Cc1oc2c(C)c3oc(=O)cc(C)c3cc2c1CNC(=O)OCCCCCCCCCCCNC(=O)OCC(=O)[C@@]1(O)[C@H](C)CC2C3CCC4=CC(=O)C=CC4(C)[C@@]3(F)C(O)CC21C (some centres unmarked) [DEX-C11-Pso]	–	–	–	–	–	–	–	–	–	–	53.1	45	1.9	0	0	14.8	0	58.3	25.7	1.3	C < N, percentage of cells (GR-GFP chimera [2]; ligand 5.10-8M): 1.9%; C << N, percentage of cells (GR-GFP chimera [2]; ligand 5.10-8M): 0%; C = N, percentage of cells (GR-GFP chimera [2]; ligand 5.10-8M): 52.9%; C > N, percentage of cells (GR-GFP chimera [2]; ligand 5.10-8M): 37.1%; C >> N, percentage of cells (GR-GFP chimera [2]; ligand 5.10-8M): 8.1%; C < N, percentage of cells (GR-GFP chimera [2]; ligand 5.10-9M): 3.6%; C << N, percentage of cells (GR-GFP chimera [2]; ligand 5.10-9M): 0%; C = N, percentage of cells (GR-GFP chimera [2]; ligand 5.10-9M): 34.2%; C > N, percentage of cells (GR-GFP chimera [2]; ligand 5.10-9M): 52.9%; C >> N, percentage of cells (GR-GFP chimera [2]; ligand 5.10-9M): 9.4%
COC(=O)CCCCCCCCCCNC(=O)OCC(=O)[C@@]1(O)[C@H](C)CC2C3CCC4=CC(=O)C=CC4(C)[C@@]3(F)C(O)CC21C (some centres unmarked) [DEX-C11-COOCH3, 10-carboxymethyl-n-decyl-1-carboxamicacid-dexamethasone-21-ester]	50	45	5	0	0	61	7	29	3	0	–	–	–	–	–	–	–	–	–	–	–
